Measured values reported in patent US12281080B2, “Quinoline-based compounds and methods of inhibiting CDK8/19” (University of South Carolina, priority 2018, dated 2025).

Key:
Test in all cases: KINOMEscan scanMAX
Format in all cases: binding
Settings in all cases: 2000 nM; read-out: Percent Control
AAK1 = AAK1 (Homo sapiens (Human), UniProt Q2M2I8)
BMPR1B = BMPR1B (Homo sapiens (Human), UniProt O00238)
TRKA (NTRK1) = TRKA (NTRK1) (Homo sapiens (Human), UniProt P04629)
[1] = molecular target: PFPK5(P.falciparum) (MAL13P1.279) (Plasmodium falciparum (isolate 3D7), UniProt P61075)
ITK = ITK (Homo sapiens (Human), UniProt Q08881)
PKAC-alpha (PRKACA) = PKAC-alpha (PRKACA) (Homo sapiens (Human), UniProt P17612)
PAK2 = PAK2 (Homo sapiens (Human), UniProt Q13177)
TLK1 = TLK1 (Homo sapiens (Human), UniProt Q9UKI8)
NLK = NLK (Homo sapiens (Human), UniProt Q9UBE8)
FER = FER (Homo sapiens (Human), UniProt P16591)
MARK3 = MARK3 (Homo sapiens (Human), UniProt P27448)
TLK2 = TLK2 (Homo sapiens (Human), UniProt Q86UE8)
Chain of TLK2 (Q86UE8 whole entry): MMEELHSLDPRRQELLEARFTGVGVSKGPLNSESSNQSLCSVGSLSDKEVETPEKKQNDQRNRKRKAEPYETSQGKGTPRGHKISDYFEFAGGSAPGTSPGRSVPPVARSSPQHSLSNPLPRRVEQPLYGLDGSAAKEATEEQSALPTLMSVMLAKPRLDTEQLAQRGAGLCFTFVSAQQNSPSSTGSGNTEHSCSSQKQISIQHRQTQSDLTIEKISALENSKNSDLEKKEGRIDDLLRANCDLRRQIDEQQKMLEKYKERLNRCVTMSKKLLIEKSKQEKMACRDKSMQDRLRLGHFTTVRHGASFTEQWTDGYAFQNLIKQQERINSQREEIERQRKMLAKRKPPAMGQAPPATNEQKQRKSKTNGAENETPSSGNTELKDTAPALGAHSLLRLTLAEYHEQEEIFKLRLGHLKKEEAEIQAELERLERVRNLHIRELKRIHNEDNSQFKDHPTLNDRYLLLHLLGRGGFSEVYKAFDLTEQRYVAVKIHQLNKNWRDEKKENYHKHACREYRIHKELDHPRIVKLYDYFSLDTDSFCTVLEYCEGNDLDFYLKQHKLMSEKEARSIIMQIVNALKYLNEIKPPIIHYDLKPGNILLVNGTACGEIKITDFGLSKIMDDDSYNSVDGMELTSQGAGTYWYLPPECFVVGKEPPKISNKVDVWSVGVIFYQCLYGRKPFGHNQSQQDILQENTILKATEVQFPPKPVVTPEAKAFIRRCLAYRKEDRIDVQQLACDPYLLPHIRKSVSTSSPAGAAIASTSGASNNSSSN

EPHB2 = EPHB2 (Homo sapiens (Human), UniProt P29323)
Chain of EPHB2 (P29323 19-1055): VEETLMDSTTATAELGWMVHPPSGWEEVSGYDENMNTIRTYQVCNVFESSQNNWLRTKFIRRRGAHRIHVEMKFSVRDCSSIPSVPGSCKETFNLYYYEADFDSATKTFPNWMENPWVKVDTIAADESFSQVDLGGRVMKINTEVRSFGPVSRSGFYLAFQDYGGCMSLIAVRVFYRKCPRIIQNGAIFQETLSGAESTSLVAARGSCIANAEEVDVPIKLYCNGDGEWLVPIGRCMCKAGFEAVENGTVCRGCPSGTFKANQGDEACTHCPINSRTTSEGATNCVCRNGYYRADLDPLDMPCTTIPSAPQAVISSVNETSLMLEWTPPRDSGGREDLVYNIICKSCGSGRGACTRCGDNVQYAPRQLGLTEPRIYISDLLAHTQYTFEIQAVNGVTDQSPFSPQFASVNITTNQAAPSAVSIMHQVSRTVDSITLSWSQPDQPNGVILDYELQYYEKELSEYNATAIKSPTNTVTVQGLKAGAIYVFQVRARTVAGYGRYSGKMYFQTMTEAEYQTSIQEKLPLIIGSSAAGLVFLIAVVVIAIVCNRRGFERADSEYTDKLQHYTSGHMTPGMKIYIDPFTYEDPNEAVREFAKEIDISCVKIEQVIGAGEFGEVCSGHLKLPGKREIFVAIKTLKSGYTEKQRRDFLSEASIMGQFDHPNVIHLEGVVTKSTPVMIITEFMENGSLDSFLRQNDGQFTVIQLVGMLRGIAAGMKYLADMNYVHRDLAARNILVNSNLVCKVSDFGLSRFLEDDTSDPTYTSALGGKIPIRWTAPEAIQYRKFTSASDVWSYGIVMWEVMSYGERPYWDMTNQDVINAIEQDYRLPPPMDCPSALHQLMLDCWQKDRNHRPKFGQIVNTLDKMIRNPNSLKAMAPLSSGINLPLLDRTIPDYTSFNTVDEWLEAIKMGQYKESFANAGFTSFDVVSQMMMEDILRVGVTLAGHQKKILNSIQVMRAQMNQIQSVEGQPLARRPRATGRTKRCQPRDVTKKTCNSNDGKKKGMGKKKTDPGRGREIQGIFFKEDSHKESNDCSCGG

CAMK4 = CAMK4 (Homo sapiens (Human), UniProt Q16566)
CIT = CIT (Homo sapiens (Human), UniProt O14578)
Chain of CIT (O14578 whole entry): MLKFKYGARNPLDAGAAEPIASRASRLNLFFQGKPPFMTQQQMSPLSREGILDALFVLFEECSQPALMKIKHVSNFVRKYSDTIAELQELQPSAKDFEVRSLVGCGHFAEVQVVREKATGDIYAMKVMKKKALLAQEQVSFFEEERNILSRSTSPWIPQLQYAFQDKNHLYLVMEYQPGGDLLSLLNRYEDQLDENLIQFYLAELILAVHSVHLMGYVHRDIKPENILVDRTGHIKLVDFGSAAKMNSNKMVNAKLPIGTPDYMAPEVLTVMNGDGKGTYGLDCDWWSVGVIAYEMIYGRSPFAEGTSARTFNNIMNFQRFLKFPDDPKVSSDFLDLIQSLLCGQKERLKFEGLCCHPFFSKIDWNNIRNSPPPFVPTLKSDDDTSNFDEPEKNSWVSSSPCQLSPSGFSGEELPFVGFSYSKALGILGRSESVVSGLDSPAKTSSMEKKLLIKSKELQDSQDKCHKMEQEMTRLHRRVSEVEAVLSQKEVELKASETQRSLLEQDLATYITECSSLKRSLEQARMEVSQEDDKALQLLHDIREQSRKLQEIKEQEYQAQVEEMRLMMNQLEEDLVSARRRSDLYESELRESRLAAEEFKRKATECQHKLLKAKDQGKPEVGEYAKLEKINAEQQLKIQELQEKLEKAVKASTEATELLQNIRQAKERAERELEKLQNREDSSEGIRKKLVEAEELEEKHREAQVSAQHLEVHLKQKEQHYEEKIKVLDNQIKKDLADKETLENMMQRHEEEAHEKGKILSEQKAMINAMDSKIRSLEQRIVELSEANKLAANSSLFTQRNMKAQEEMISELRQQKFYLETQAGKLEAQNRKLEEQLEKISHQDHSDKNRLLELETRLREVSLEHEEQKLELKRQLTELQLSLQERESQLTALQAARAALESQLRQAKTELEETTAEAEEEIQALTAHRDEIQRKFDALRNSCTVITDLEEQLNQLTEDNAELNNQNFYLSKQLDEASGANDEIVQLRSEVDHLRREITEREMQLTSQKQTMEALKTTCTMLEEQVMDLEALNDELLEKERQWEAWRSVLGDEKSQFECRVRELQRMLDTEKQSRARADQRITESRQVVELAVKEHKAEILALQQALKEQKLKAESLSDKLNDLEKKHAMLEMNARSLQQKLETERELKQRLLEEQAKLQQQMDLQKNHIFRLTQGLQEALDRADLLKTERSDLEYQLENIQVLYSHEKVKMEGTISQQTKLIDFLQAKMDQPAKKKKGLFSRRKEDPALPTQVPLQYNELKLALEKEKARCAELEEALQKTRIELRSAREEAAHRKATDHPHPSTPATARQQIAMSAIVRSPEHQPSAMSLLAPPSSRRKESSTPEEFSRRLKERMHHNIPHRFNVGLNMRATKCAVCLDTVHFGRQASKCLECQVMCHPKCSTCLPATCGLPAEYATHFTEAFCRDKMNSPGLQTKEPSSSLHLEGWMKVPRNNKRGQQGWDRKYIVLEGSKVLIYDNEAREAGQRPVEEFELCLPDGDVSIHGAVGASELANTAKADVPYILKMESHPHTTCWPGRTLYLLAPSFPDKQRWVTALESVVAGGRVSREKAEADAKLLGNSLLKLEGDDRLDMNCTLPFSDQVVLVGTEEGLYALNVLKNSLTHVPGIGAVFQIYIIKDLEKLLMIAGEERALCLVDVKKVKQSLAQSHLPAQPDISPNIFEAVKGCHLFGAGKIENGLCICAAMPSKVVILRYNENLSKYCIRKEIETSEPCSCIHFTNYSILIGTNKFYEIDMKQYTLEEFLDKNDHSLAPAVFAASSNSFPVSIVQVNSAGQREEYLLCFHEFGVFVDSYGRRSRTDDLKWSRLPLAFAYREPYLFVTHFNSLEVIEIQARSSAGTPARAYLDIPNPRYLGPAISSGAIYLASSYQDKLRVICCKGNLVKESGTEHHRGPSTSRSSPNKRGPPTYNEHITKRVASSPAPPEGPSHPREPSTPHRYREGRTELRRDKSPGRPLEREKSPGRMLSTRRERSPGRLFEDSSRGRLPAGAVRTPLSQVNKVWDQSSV

[2] = molecular target: ABL1(F317I)-nonphosphorylated (Homo sapiens (Human), UniProt P00519, F317I)
JNK2 (MAPK9) = JNK2 (MAPK9) (Homo sapiens (Human), UniProt P45984)
RET(M918T) = RET(M918T) (Homo sapiens (Human), UniProt P07949, M918T)
MET = MET (Homo sapiens (Human), UniProt P08581)
[3] = molecular target: RSK3(Kin.Dom.2-C-terminal) (RPS6KA2) (Homo sapiens (Human), UniProt Q15349)
Chain of RSK3(Kin.Dom.2-C-terminal) (RPS6KA2) (Q15349 415-672): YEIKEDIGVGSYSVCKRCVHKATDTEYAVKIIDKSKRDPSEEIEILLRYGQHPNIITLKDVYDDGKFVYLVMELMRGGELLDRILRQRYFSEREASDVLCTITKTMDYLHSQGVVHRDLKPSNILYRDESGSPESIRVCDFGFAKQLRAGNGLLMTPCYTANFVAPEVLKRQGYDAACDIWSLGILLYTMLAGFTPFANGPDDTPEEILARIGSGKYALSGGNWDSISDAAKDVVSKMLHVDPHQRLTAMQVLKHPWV

CTK (MATK) = CTK (MATK) (Homo sapiens (Human), UniProt P42679)
NDR2 (STK38L) = NDR2 (STK38L) (Homo sapiens (Human), UniProt Q9Y2H1)
ALK = ALK (Homo sapiens (Human), UniProt Q9UM73)
FGFR3 = FGFR3 (Homo sapiens (Human), UniProt P22607)
CDK4 = CDK4 (Homo sapiens (Human), UniProt P11802)
ANKK1 = ANKK1 (Homo sapiens (Human), UniProt Q8NFD2)
KIT(D816V) = KIT(D816V) (Homo sapiens (Human), UniProt P10721, D816V)
MEK4 (MAP2K4) = MEK4 (MAP2K4) (Homo sapiens (Human), UniProt P45985)
WEE1 = WEE1 (Homo sapiens (Human), UniProt P30291)
FES = FES (Homo sapiens (Human), UniProt P07332)
Chain of FES (P07332 whole entry): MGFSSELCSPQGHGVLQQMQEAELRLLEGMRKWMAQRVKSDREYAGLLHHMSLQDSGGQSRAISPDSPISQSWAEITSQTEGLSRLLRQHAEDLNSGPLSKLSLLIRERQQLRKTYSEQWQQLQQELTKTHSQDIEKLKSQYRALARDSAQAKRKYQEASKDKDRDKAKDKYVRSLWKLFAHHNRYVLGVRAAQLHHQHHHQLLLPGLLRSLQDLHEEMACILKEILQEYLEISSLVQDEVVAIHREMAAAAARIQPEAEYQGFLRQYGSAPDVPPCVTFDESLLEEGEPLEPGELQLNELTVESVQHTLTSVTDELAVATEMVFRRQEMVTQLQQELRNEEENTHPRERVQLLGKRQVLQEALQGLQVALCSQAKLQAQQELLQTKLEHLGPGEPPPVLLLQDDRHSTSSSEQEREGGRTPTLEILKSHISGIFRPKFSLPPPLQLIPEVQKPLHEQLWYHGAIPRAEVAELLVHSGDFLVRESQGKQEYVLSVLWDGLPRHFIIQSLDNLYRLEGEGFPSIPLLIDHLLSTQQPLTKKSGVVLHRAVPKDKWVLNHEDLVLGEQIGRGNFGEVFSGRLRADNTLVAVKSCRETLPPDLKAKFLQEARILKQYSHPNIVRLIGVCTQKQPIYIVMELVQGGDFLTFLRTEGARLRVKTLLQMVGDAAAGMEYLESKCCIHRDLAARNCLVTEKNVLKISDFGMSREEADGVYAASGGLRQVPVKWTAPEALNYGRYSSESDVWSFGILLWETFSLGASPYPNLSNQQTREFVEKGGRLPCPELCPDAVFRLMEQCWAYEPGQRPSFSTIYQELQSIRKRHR

p38-alpha (MAPK14) = p38-alpha (MAPK14) (Homo sapiens (Human), UniProt Q16539)
MEK1 (MAP2K1) = MEK1 (MAP2K1) (Homo sapiens (Human), UniProt Q02750)
EGFR(G719C) = EGFR(G719C) (Homo sapiens (Human), UniProt P00533, G719C)
ASK1 (MAP3K5) = ASK1 (MAP3K5) (Homo sapiens (Human), UniProt Q99683)
TSSK1B = TSSK1B (Homo sapiens (Human), UniProt Q9BXA7)
STK36 = STK36 (Homo sapiens (Human), UniProt Q9NRP7)

Work on `CN1CCN(C(=O)c2ccc3cc(CCNc4ccnc5ccc(C#N)cc45)ccc3c2)CC1` [compound 6148, 4-((2-(6-(4-methylpiperazine-1-carbonyl)naphthalen-2-yl)ethyl)amino)quinoline-6-carbonitrile] yielded a remaining binding at 2 µM (AAK1) of 84%, a remaining binding at 2 µM (BMPR1B) of 70% and a remaining binding at 2 µM (TRKA (NTRK1)) of 53%. For the same compound, the remaining binding at 2 µM [1] was 70%, the remaining binding at 2 µM (ITK) was 93% and the remaining binding at 2 µM (PKAC-alpha (PRKACA)) was 93%. It also gave a remaining binding at 2 µM (PAK2) of 84%, a remaining binding at 2 µM (TLK1) of 94% and a remaining binding at 2 µM (NLK) of 90%. It also gave a remaining binding at 2 µM (FER) of 91%, a remaining binding at 2 µM (MARK3) of 94% and a remaining binding at 2 µM (TLK2) of 88%. It also gave a remaining binding at 2 µM (EPHB2) of 86%, a remaining binding at 2 µM (CAMK4) of 95% and a remaining binding at 2 µM (CIT) of 48%. It also gave a remaining binding at 2 µM [2] of 88%, a remaining binding at 2 µM (JNK2 (MAPK9)) of 67% and a remaining binding at 2 µM (RET(M918T)) of 85%. It also gave a remaining binding at 2 µM (MET) of 90%, a remaining binding at 2 µM [3] of 91% and a remaining binding at 2 µM (CTK (MATK)) of 56%. It also gave a remaining binding at 2 µM (NDR2 (STK38L)) of 96%, a remaining binding at 2 µM (ALK) of 89% and a remaining binding at 2 µM (FGFR3) of 100%. The remaining binding at 2 µM (CDK4) was 67%, the remaining binding at 2 µM (ANKK1) was 69% and the remaining binding at 2 µM (KIT(D816V)) was 100%. For the same compound, the remaining binding at 2 µM (MEK4 (MAP2K4)) was 58%, the remaining binding at 2 µM (WEE1) was 88% and the remaining binding at 2 µM (FES) was 81%. For the same compound, the remaining binding at 2 µM (p38-alpha (MAPK14)) was 84%, the remaining binding at 2 µM (MEK1 (MAP2K1)) was 59% and the remaining binding at 2 µM (EGFR(G719C)) was 93%. The remaining binding at 2 µM (ASK1 (MAP3K5)) was 91%, the remaining binding at 2 µM (TSSK1B) was 100% and the remaining binding at 2 µM (STK36) was 88%.
